Experimental data reported in PubChem BioAssay (NCI).
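These data come from cells grown in 96-well plates and exposed to compound for 48 hours at five concentrations. At the TGI there is no net growth.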

Columns and labels:
Test in all cases: NCI anticancer screen, dose series, 48 h
MDA-MB-435 = system: MDA-MB-435
786-0 renal = system: 786-0 renal
SF-539 CNS = system: SF-539 CNS
SF-295 CNS = system: SF-295 CNS
SN12C renal = system: SN12C renal
A549 NSCLC = system: A549 NSCLC
NCI-H522 lung = system: NCI-H522 lung
SK-OV-3 ovarian = system: SK-OV-3 ovarian
MDA-MB-231 breast = system: MDA-MB-231 breast
SK-MEL-2 melanoma = system: SK-MEL-2 melanoma
MCF7 breast = system: MCF7 breast
OVCAR-4 ovarian = system: OVCAR-4 ovarian
SNB-19 CNS = system: SNB-19 CNS
M14 melanoma = system: M14 melanoma
EKVX NSCLC = system: EKVX NSCLC
NCI-H460 lung = system: NCI-H460 lung
SW-620 colon = system: SW-620 colon
RXF 393 renal = system: RXF 393 renal
NCI-H226 lung = system: NCI-H226 lung

| SMILES | TGI (MDA-MB-435) [µM] | TGI (786-0 renal) [µM] | TGI (SF-539 CNS) [µM] | TGI (SF-295 CNS) [µM] | TGI (SN12C renal) [µM] | TGI (A549 NSCLC) [µM] | TGI (NCI-H522 lung) [µM] | TGI (SK-OV-3 ovarian) [µM] | TGI (MDA-MB-231 breast) [µM] | TGI (SK-MEL-2 melanoma) [µM] | TGI (MCF7 breast) [µM] | TGI (OVCAR-4 ovarian) [µM] | TGI (SNB-19 CNS) [µM] | TGI (M14 melanoma) [µM] | TGI (EKVX NSCLC) [µM] | TGI (NCI-H460 lung) [µM] | TGI (SW-620 colon) [µM] | TGI (RXF 393 renal) [µM] | TGI (NCI-H226 lung) [µM] |
| --- | --- | --- | --- | --- | --- | --- | --- | --- | --- | --- | --- | --- | --- | --- | --- | --- | --- | --- | --- |
| CCCCCCCCCCCCCCCCCCOc1ccc(/C=C/C2=[N+](CCCl)CCO2)cc1 | > 100 | > 100 | > 100 | > 100 | > 100 | > 100 | > 100 | > 100 | > 100 | > 100 | > 100 | > 100 | > 100 | > 100 | > 100 | > 100 | > 100 | – | – |
| CCOC(=O)Cn1nnc2cc(Nc3nc4ccccc4nc3C(=O)OCC)ccc21 | > 100 | > 100 | 58.6 | > 100 | > 100 | > 100 | > 100 | > 100 | – | > 100 | > 100 | > 100 | > 100 | > 100 | > 100 | > 100 | > 100 | 64.8 | > 100 |
| COc1ccc2c(c1)CC1(O)COc3cc(OC)ccc3C1O2 (stereo not drawn) | > 100 | > 100 | > 100 | > 100 | > 100 | > 100 | > 100 | > 100 | > 100 | > 100 | > 100 | > 100 | – | > 100 | > 100 | – | > 100 | – | > 100 |
| N#CCOc1cccc(C2(N3CC=CCC3)CCCCC2)c1 | > 100 | > 100 | > 100 | > 100 | > 100 | > 100 | > 100 | > 100 | > 100 | > 100 | > 100 | > 100 | > 100 | > 100 | > 100 | – | > 100 | – | > 100 |
| COc1ccc(-c2nnc(-c3c(C)n(C)n(-c4ccccc4)c3=O)o2)cc1 | – | > 100 | > 100 | > 100 | > 100 | > 100 | > 100 | > 100 | – | > 100 | – | > 100 | > 100 | > 100 | > 100 | > 100 | > 100 | > 100 | > 100 |
| Cc1ccc(S(=O)(=O)C2c3nc4ccccc4cc3-c3nc4ccccc4nc32)cc1 (stereo not drawn) | – | > 100 | > 100 | – | > 100 | > 100 | > 100 | > 100 | – | > 100 | – | > 100 | > 100 | > 100 | > 100 | – | > 100 | – | – |
| C=CC[C@@H]1C=C[C@@H](C(=O)OC)n2c(=O)n(-c3ccccc3)c(=O)n21 | > 100 | > 100 | > 100 | > 100 | > 100 | – | > 100 | > 100 | > 100 | – | > 100 | > 100 | > 100 | > 100 | > 100 | – | > 100 | – | > 100 |
| CCCCNC(=S)c1ccc(OC(=O)Nc2ccc(Cl)cc2)cc1 | > 100 | > 100 | > 100 | > 100 | – | > 100 | > 100 | > 100 | – | > 100 | > 100 | > 100 | > 100 | > 100 | > 100 | > 100 | > 100 | – | – |
| CC1(C)O[C@H]2OC(CO)C(OS(C)(=O)=O)[C@H]2O1 (stereo partly drawn) | > 100 | > 100 | > 100 | > 100 | > 100 | > 100 | > 100 | – | > 100 | > 100 | > 100 | – | > 100 | > 100 | > 100 | > 100 | > 100 | – | – |
| Cc1c(O)c(=O)ccn1CCc1c[nH]c2ccccc12 | > 100 | 9.06 | 49.6 | > 100 | – | > 100 | – | > 100 | 6.47 | – | 33.2 | – | > 100 | 40.2 | 91.7 | 19.4 | > 100 | – | – |
| COc1cc2cc3c4c(cc(OC)c(OC)c4c2cc1OC)CCN3C(=O)N(C)C | – | > 100 | > 100 | > 100 | > 100 | > 100 | > 100 | > 100 | – | > 100 | – | > 100 | > 100 | > 10 | > 100 | > 100 | > 100 | > 100 | > 100 |
| CC(O)c1cc2c(s1)C(=O)c1scc(C(C)O)c1C2=O (stereo not drawn) | 0.455 | 6.39 | – | 0.364 | 0.44 | 3.98 | 2.56 | 7.76 | – | 0.606 | 3.01 | 1.73 | 1.66 | 0.442 | 2.93 | 2.1 | > 100 | 2.57 | 4.03 |
| COc1ccc(/C=N\NC(=O)Nc2cccc3ccccc23)cc1 | > 100 | 46.6 | 33.3 | – | > 100 | > 100 | > 100 | – | 44.4 | 43.7 | > 100 | 43.2 | 36.8 | > 100 | 95.2 | 40.2 | > 100 | – | 83.7 |
| CC(=O)Nc1ccc(-c2nnc(SCC(=O)Nc3cccc([N+](=O)[O-])c3)o2)cc1 | – | 40.6 | 31.4 | 32 | 33.2 | 46.3 | 22.4 | 24.5 | – | 37.2 | – | 25.3 | – | 29.7 | – | 28.8 | 44 | 25.7 | 23.6 |
| N#CCSc1c(-c2ccccc2)c(=O)n(-c2ccccc2)c(=S)n1-c1ccccc1 | > 100 | > 100 | – | > 100 | > 100 | > 100 | > 100 | > 100 | – | > 100 | > 100 | > 100 | > 100 | > 100 | > 100 | > 100 | > 100 | – | > 100 |
